Source: the NIST ThermoML archive (doi:10.1016/j.fluid.2006.09.007)
Numbers after ± are expanded uncertainties.

Conditions: Liquid, Ebulliometric method (Recirculating still)

Row | Structure (SMILES) | vapor or sublimation pressure (314 K) [kPa] | vapor or sublimation pressure (317 K) [kPa] | vapor or sublimation pressure (320 K) [kPa] | vapor or sublimation pressure (323 K) [kPa] | vapor or sublimation pressure (326 K) [kPa] | vapor or sublimation pressure (329 K) [kPa] | vapor or sublimation pressure (332 K) [kPa] | vapor or sublimation pressure (335 K) [kPa] | vapor or sublimation pressure (338 K) [kPa] | vapor or sublimation pressure (315 K) [kPa] | vapor or sublimation pressure (318 K) [kPa] | vapor or sublimation pressure (321 K) [kPa] | vapor or sublimation pressure (324 K) [kPa] | vapor or sublimation pressure (327 K) [kPa] | vapor or sublimation pressure (330 K) [kPa] | vapor or sublimation pressure (333 K) [kPa] | vapor or sublimation pressure (336 K) [kPa] | vapor or sublimation pressure (339 K) [kPa] | vapor or sublimation pressure (342 K) [kPa] | vapor or sublimation pressure (345 K) [kPa]
1 | CC(C)=O [acetone] | 57.96 ± 0.47 | 64.95 ± 0.49 | 72.6 ± 0.54 | 80.96 ± 0.58 | 90.08 ± 0.64 | 100 ± 0.69 | 110.78 ± 0.75 | 122.47 ± 0.81 | 135.11 ± 0.85 | – | – | – | – | – | – | – | – | – | – | –
2 | CO [methanol] | – | – | – | – | – | – | – | – | – | 38.33 ± 0.38 | 43.97 ± 0.4 | 50.29 ± 0.45 | 57.36 ± 0.5 | 65.25 ± 0.56 | 74.02 ± 0.62 | 83.76 ± 0.68 | 94.55 ± 0.76 | 106.47 ± 0.84 | 119.61 ± 0.92 | 134.07 ± 0.96
